Read-outs that look alike come from different tables or passages of the source.
What was measured:
Assay in all cases: Synergistic Growth Inhibition Assay (MIC and FIC index, 96-well, resazurin)
Assay type in all cases: cell-based
Sclerotinia sclerotiorum = conditions: Sclerotinia sclerotiorum, […], Compound B alone
Summary of the method: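 Checkerboard of pesticidal active ingredient combined with C6–C10 (or C11/C12) aliphatic acids in serial dilutions against Sclerotinia sclerotiorum. Growth scored by resazurin colour change plus visual inspection; FIC index is the sum of each agent's concentration divided by its MIC alone, with 1 indicating additivity.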

Fusarium oxysporum = conditions: Fusarium oxysporum, Compound B alone
Summary of the method: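 Checkerboard dilutions of pesticidal active plus C6–C10 (or C11/C12) aliphatic acid in 96-well plates; growth scored by resazurin colour change, optionally visual.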

Botrytis cinerea = conditions: Botrytis cinerea, 48 h, Compound B alone
Summary of the method: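 Checkerboard microdilution of pesticidal active ingredient combined with C6–C10 (or C11/C12) aliphatic acid against Botrytis cinerea, with growth read by resazurin colour change plus visual check. FIC index = sum of each agent's concentration in the inhibiting well divided by its MIC alone; 1 denotes additivity.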

Alternaria solani = conditions: Alternaria solani, […], read-out: MIC (B)
Description: In some embodiments, the synergistic action between the pesticidal active ingredient, and the at least one C6-C10 (or alternatively C11 or C12) saturated or unsaturated aliphatic acid components of the pesticidal compositions according to embodiments of the present disclosure was tested using a Synergistic Growth Inhibition Assay, which is derived from and related to a checkerboard assay as is known in the art for testing of combinations of antimicrobial agents. In the Synergistic Growth Inhibition Assay used in accordance with some embodiments of the present disclosure, multiple dilutions of combinations of pesticidal active ingredient and at least one C6-C10 saturated or unsaturated aliphatic acid agents are tested in individual cells for inhibitory activity against a target pest or pathogenic organism. In one such embodiment, the combinations of pesticidal active ingredient and C6-C10 (or alternatively C11 or C12) saturated or unsaturated aliphatic acid agents may preferably be tested in decreasing concentrations. In a further such embodiment, the combinations of pesticidal active ingredient and C6-C10 (or alternatively C11 or C12) saturated or unsaturated aliphatic acid agents may be tested in increasing concentrations. These multiple combinations of the pesticidal active ingredient and at least one C6-C10 (or alternatively C11 or C12) saturated or unsaturated aliphatic acid agents may be prepared in 96-well microtiter plates. In one such embodiment, the Synergistic Growth Inhibition Assay then comprises rows which each contain progressively decreasing concentrations of the pesticidal active ingredient and one or more C6-C10 (or alternatively C11 or C12) saturated or unsaturated aliphatic acid agents to test for the MIC of the agents in combination at which growth of the target pest or pathogen is inhibited. Thus, each well of the microtiter plate is a unique combination of the two agents, at which inhibitory efficacy of the combination against the target pest or pathogen can be determined.
In one embodiment according to the present disclosure, for each row of microtiter cells in the Synergistic Growth Inhibition Assay, the FIC index is calculated from the lowest concentration of the pesticidal active ingredient and one or more C6-C10 saturated or unsaturated aliphatic acid agents necessary to inhibit growth of a target pest or pathogen. The FIC of each component is derived by dividing the concentration of the agent present in that well of the microtiter plate by the minimal inhibitory concentration (MIC) needed of that agent alone to inhibit growth of the target pest or pathogen. The FIC index is then the sum of these values for both agents in that well of the microtiter plate. […] Fractional inhibitory concentration indices may then used as measure of synergy. […] When the FIC index is equal to 1, the combination is additive.
Then, serial dilutions of these initial compositions in successive wells in the row of the microtiter plate were used to assay the pesticidal composition under the same conditions to determine the concentration of the composition combining the two agents corresponding to the microtiter well in which growth inhibition of the target pest or organism ceases.
A culture of the representative fungal pathogen, namely Fusarium oxysporum, Botrytis cinerea, or Sclerotinia sclerotiorum, for example, is grown to exponential phase in potato dextrose broth (PDB).

[1] = 7 days incubation, read-out: MIC (B)
[2] = Table 33, 7 days incubation, read-out: MIC (B)
[3] = Table 35, 7 days incubation, read-out: MIC (B)
[4] = Table 36, 7 days incubation, read-out: MIC (B)
[5] = Table 37, 7 days incubation, read-out: MIC (B)
[6] = Table 38, 7 days incubation, read-out: MIC (B)
[7] = Table 41, 7 days incubation, read-out: MIC (B)
[8] = 48 h, Table 32, 48 hours incubation, read-out: MIC (B)
[9] = Table 43, 48 hours incubation, read-out: MIC (B)
[10] = Table 44, 48 hours incubation, read-out: MIC (B)
[11] = Table 45, 48 hours incubation, read-out: MIC (B)
[12] = Table 47, 48 hours incubation, read-out: MIC (B)
[13] = Table 48, 48 hours incubation, read-out: MIC (B)
[14] = Table 49, 48 hours incubation, read-out: MIC (B)
[15] = Table 54, 48 hours incubation, read-out: MIC (B)
[16] = Table 60, Compound B alone, 7 days incubation
[17] = 48 h, Table 27, 48 hours incubation, read-out: MIC (B)
[18] = Table 50, 48 hours incubation, read-out: MIC (B)
[19] = Table 39, 7 days incubation, read-out: MIC (B)
[20] = Table 40, 7 days incubation, read-out: MIC (B)
[21] = 24 h, Table 3, 24 hour incubation, read-out: MIC(B)
[22] = 24 h, Table 4, 24 hour incubation, read-out: MIC (B)
[23] = 48 h, Table 28, 48 hours incubation, read-out: MIC (B)
[24] = 48 h, Table 30, 48 hours incubation, read-out: MIC (B)
[25] = Table 46, 48 hours incubation, read-out: MIC (B)
[26] = Table 56, 48 hours incubation, read-out: MIC (B)
[27] = Table 58, 48 hours incubation, read-out: MIC (B)
[28] = 24 h, Table 1, 24 hour incubation, read-out: MIC(B)
[29] = 24 h, Table 2, 24 hour incubation, read-out: MIC (B)
[30] = Table 34, 7 days incubation, read-out: MIC (B)
[31] = Compound B alone, 7 days incubation

Row | SMILES | MIC (Sclerotinia sclerotiorum; [1]) | MIC (Sclerotinia sclerotiorum; [2]) | MIC (Sclerotinia sclerotiorum; [3]) | MIC (Sclerotinia sclerotiorum; [4]) | MIC (Sclerotinia sclerotiorum; [5]) | MIC (Sclerotinia sclerotiorum; [6]) | MIC (Sclerotinia sclerotiorum; [7]) | MIC (Fusarium oxysporum; [8]) | MIC (Botrytis cinerea; [9]) | MIC (Botrytis cinerea; [10]) | MIC (Botrytis cinerea; [11]) | MIC (Botrytis cinerea; [12]) | MIC (Botrytis cinerea; [14]) | MIC (Alternaria solani; [16]) | MIC (Fusarium oxysporum; [17]) | MIC (Botrytis cinerea; [18]) | MIC (Sclerotinia sclerotiorum; [19]) | MIC (Fusarium oxysporum; [24]) | MIC (Botrytis cinerea; [26]) | MIC (Botrytis cinerea; [27]) | other results
1 | CCCCCC=CCC(=O)O [3-Nonenoic acid] | 78.1 µg/mL | 19.5 µg/mL | 39.1 µg/mL | 39.1 µg/mL | 78.1 µg/mL | 78.1 µg/mL | 39.1 µg/mL | 156 µg/mL | 78.1 µg/mL | 78.1 µg/mL | 78.1 µg/mL | 78.1 µg/mL | 78.1 µg/mL | 78.1 µg/mL |  |  |  |  |  |  | MIC (Botrytis cinerea; [13]): 78.1 µg/mL; MIC (Botrytis cinerea; [15]): 78.1 µg/mL
2 | C=CCCCC(=O)O [5-Hexenoic acid] |  | 156 µg/mL | 156 µg/mL |  |  |  |  |  | 156 µg/mL | 78.1 µg/mL | 312 µg/mL |  |  | 312 µg/mL | 312 µg/mL | 156 µg/mL |  |  |  |  | MIC (Botrytis cinerea; [15]): 312 µg/mL
3 | C=CCCCCCCCC(=O)O [9-Decenoic acid, 9-decenoic acid] | 78.1 µg/mL | 39.1 µg/mL | 39.1 µg/mL | 39.1 µg/mL | 156 µg/mL | 78.1 µg/mL | 78.1 µg/mL | 78.1 µg/mL | 156 µg/mL | 78.1 µg/mL | 78.1 µg/mL | 78.1 µg/mL | 156 µg/mL | 39.1 µg/mL | 312 µg/mL | 39.1 µg/mL | 39.1 µg/mL | 156 µg/mL | 78.1 µg/mL | 156 µg/mL | MIC (Sclerotinia sclerotiorum; [20]): 78.1 µg/mL; MIC (Fusarium oxysporum; [21]): 71.7 µg/mL; MIC (Fusarium oxysporum; [22]): 71.7 µg/mL; MIC (Fusarium oxysporum; [23]): 312 µg/mL; MIC (Botrytis cinerea; [25]): 39.1 µg/mL; MIC (Botrytis cinerea; [13]): 78.1 µg/mL; MIC (Botrytis cinerea; [15]): 78.1 µg/mL
4 | C/C=C/C=C/C(=O)O [(2E,4E)-2,4-hexadienoic acid] |  | 125 µg/mL |  |  |  |  |  |  | 62.5 µg/mL | 62.5 µg/mL |  |  |  | 125 µg/mL | 25 µg/mL |  |  |  | 125 µg/mL | 250 µg/mL | MIC (Fusarium oxysporum; [28]): 125 µg/mL; MIC (Fusarium oxysporum; [29]): 125 µg/mL
5 | CCCCCC(=O)O [Hexanoic acid, hexanoic acid] |  |  |  |  |  |  |  |  |  |  |  |  |  |  |  |  |  |  |  |  | MIC (Sclerotinia sclerotiorum; read-out: MIC (B), Table 16, incubation 7 days): 39.1 µg/mL; MIC (Sclerotinia sclerotiorum; read-out: MIC (B), Table 17, incubation 7 days): 39.1 µg/mL; MIC (Sclerotinia sclerotiorum; read-out: MIC (B), Table 19, incubation 7 days): 78.1 µg/mL; MIC (Fusarium oxysporum; 24 h, read-out: MIC(B), Table 7, 24 hour incubation): 145 µg/mL; MIC (Fusarium oxysporum; read-out: MIC (B), Table 8): 290 µg/mL; MIC (Botrytis cinerea; read-out: MIC (B), Table 21, incubation 48 hours): 78.1 µg/mL; MIC (Botrytis cinerea; read-out: MIC (B), Table 22, incubation 48 hours): 78.1 µg/mL; MIC (Botrytis cinerea; read-out: MIC (B), Table 25, 48 hours incubation): 78.1 µg/mL; MIC (Alternaria solani): 156 µg/mL
6 | CCCCCCCCC(=O)O [Nonanoic acid, nonanoic acid] | 39.1 µg/mL |  |  |  |  |  |  |  |  |  |  |  |  | 156 µg/mL |  |  |  |  |  |  | MIC (Sclerotinia sclerotiorum; Table 16, incubation 7 days, read-out: MIC (B)): 19.5 µg/mL; MIC (Sclerotinia sclerotiorum; Table 17, incubation 7 days, read-out: MIC (B)): 78.1 µg/mL; MIC (Sclerotinia sclerotiorum; Table 19, incubation 7 days, read-out: MIC (B)): 78.1 µg/mL; MIC (Sclerotinia sclerotiorum; Table 20A, incubation 7 days, read-out: MIC (B)): 39.1 µg/mL; MIC (Fusarium oxysporum; 48 h, Table 12, incubation 48 hours, read-out: MIC (B)): 312 µg/mL; MIC (Botrytis cinerea; Table 24, 48 hours incubation, read-out: MIC (B)): 156 µg/mL
7 | CCCCCCC/C=C/C(=O)O [Trans-2-decenoic acid, trans-2-decenoic acid] | 19.5 µg/mL | 19.5 µg/mL | 9.77 µg/mL |  | 39.1 µg/mL | 19.5 µg/mL |  | 156 µg/mL | 19.5 µg/mL | 78.1 µg/mL | 39.1 µg/mL |  | 78.1 µg/mL | 78.1 µg/mL |  | 39.1 µg/mL | 19.5 µg/mL | 78.1 µg/mL | 78.1 µg/mL | 156 µg/mL | MIC (Sclerotinia sclerotiorum; [30]): 19.5 µg/mL; MIC (Sclerotinia sclerotiorum; [20]): 19.5 µg/mL; MIC (Sclerotinia sclerotiorum; Table 42, incubation 7 days, read-out: MIC (B)): 19.5 µg/mL; MIC (Fusarium oxysporum; [21]): 36.2 µg/mL; MIC (Fusarium oxysporum; [22]): 36.2 µg/mL; MIC (Botrytis cinerea; Table 51, 48 hours incubation, read-out: MIC (B)): 19.5 µg/mL; MIC (Alternaria solani; [31]): 39.1 µg/mL
8 | CCCCCC/C=C/C(=O)O [Trans-2-nonenoic acid] | 78.1 µg/mL | 19.5 µg/mL |  | 39.1 µg/mL | 78.1 µg/mL | 39.1 µg/mL | 39.1 µg/mL | 312 µg/mL | 78.1 µg/mL | 39.1 µg/mL | 39.1 µg/mL | 78.1 µg/mL | 156 µg/mL | 78.1 µg/mL |  |  | 19.5 µg/mL | 312 µg/mL | 156 µg/mL |  | MIC (Sclerotinia sclerotiorum; [20]): 19.5 µg/mL; MIC (Fusarium oxysporum; [23]): 156 µg/mL; MIC (Botrytis cinerea; [25]): 19.5 µg/mL; MIC (Alternaria solani; [31]): 156 µg/mL
9 | CCCCCCCC/C=C/C(=O)O [Trans-2-undecenoic acid] |  | 19.5 µg/mL |  |  |  | 39.1 µg/mL | 39.1 µg/mL | 156 µg/mL | 156 µg/mL | 78.1 µg/mL | 78.1 µg/mL | 78.1 µg/mL | 78.1 µg/mL | 156 µg/mL |  | 39.1 µg/mL | 39.1 µg/mL |  | 39.1 µg/mL | 156 µg/mL | MIC (Botrytis cinerea; [13]): 78.1 µg/mL
10 | CC/C=C/CC(=O)O [Trans-3-hexenoic acid, trans-3-hexenoic acid] | 312 µg/mL | 156 µg/mL | 156 µg/mL |  |  |  | 156 µg/mL |  | 156 µg/mL | 156 µg/mL | 312 µg/mL |  |  | 312 µg/mL | 312 µg/mL |  |  | 312 µg/mL |  |  | MIC (Sclerotinia sclerotiorum; [30]): 156 µg/mL; MIC (Fusarium oxysporum; [28]): 312 µg/mL; MIC (Fusarium oxysporum; [29]): 312 µg/mL; MIC (Fusarium oxysporum; [23]): 312 µg/mL; MIC (Fusarium oxysporum; 48 h, Table 31, 48 hours incubation, read-out: MIC (B)): 156 µg/mL

From patent publication US11839212B2, “Synergistic pesticidal compositions and methods for delivery of insecticidal active ingredients” (0903608 B.C. Ltd., priority 2018, dated 2023)
